Reference: patent US20250122174A1 (Shenzhen Yuanli Shenwan Innovative Medicine Co., Ltd., priority 2022, published 2025)

Target: HPK1 (Homo sapiens (Human), UniProt Q92918)
Assay: HPK1 Inhibition Assay (ADP-Glo kinase assay)
Format: biochemical
Conditions: ATP 10 μM
Method in brief: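 ADP-Glo luminescence read-out after 1 h room-temperature kinase reaction with 10 μM ATP and 0.1 μg/ml MBP. Recombinant human HPK1 at 7.5 ng/μl; buffer 40 mM Tris pH 7.5, 20 mM MgCl2. Compounds serially diluted 5-fold over 10 points from 10 mM DMSO stock.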

Sequence of HPK1 (Q92918 1-346 limits assumed): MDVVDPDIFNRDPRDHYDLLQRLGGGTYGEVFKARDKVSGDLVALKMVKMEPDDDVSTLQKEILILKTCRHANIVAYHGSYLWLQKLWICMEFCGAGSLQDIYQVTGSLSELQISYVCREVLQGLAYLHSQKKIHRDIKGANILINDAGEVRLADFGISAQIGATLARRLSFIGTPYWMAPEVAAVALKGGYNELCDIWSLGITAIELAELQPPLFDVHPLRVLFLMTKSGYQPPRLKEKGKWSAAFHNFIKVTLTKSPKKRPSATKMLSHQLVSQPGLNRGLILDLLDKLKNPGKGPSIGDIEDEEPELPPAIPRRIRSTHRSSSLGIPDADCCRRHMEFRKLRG

Row | SMILES | IC50 [nM]
1 | CC(C)(C)n1cc2c(N3CC[C@@H](N)C3)c(NC(=O)c3ccc(=O)n(-c4c(F)cccc4F)n3)ccc2n1 [Example 241, (R)-N-(4-(3-aminopyrrolidin-1-yl)-2-(tert-butyl)-2H-indazol-5-yl)-1-(2,6-difluorophenyl)-6-oxo-1,6-dihydropyridazine-3-carboxamide] | < 100
2 | C[C@@H]1CN(c2c(NC(=O)c3ccc(=O)n(-c4c(F)cccc4F)n3)ccc3nn(C4(C)CCC4)cc23)C[C@@H]1N [Example 317, 1-(2,6-difluorophenyl)-N-{4-[(3R,4R)-3-amino-4-methyltetrahydro-1H-pyrrol-1-yl]-2-(methylcyclobutyl)indazol-5-yl}-6-oxo-1,2-diazine-3-carboxamide] | < 100
3 | C[C@@H]1CN(c2c(NC(=O)c3ccc(=O)n(-c4c(F)cccc4F)n3)ccc3nn(C45CCC(CC4)CC5)cc23)C[C@@H]1N [Example 304, N-(4-((3R,4R)-3-amino-4-methylpyrrolidin-1-yl)-2-(bicyclo[2.2.2]octan-1-yl)-2H-indazol-5-yl)-1-(2,6-difluorophenyl)-6-oxo-1,6-dihydropyridazine-3-carboxamide] | < 100
4 | N[C@@H]1CCN(c2c(NC(=O)c3ccc(=O)n(-c4c(F)cccc4F)n3)ccc3c2cnn3C2CCCC2)C1 [Example 287, (R)-N-(4-(3-aminopyrrolidin-1-yl)-1-cyclopentyl-1H-indazol-5-yl)-1-(2,6-difluorophenyl)-6-oxo-1,6-dihydropyridazine-3-carboxamide] | < 100
5 | CC(C)n1ncc2c(N3CC[C@@H](N)C3)c(NC(=O)c3ccc(=O)n(-c4c(F)cccc4F)n3)ccc21 [Example 179, N-[4-[(3R)-3-aminopyrrolidin-1-yl]-1-isopropyl-indazol-5-yl]-1-(2,6-difluorophenyl)-6-oxo-pyridazine-3-carboxamide] | < 100
6 | COCc1nc2c(N3CC[C@H](N)C3)c(NC(=O)c3ccnn(-c4c(F)cccc4F)c3=O)ccc2n1C [Example 44, (S)—N-(4-(3-aminopyrrolidin-1-yl)-2-(methoxymethyl)-1-methyl-1H-benzo[d]imidazol-5-yl)-2-(2,6-difluorophenyl)-3-oxo-2,3-dihydropyridazine-4-carboxamide] | < 100
7 | N[C@H]1CN(c2c(NC(=O)c3ccc(=O)n(-c4c(F)cccc4F)n3)ccc3c2cnn3[C@H]2CCOC2)CC12CC2 [Example 249, 1-(2,6-difluorophenyl)-N-{4-[(7R)-7-amino-5-azaspiro[2.4]heptan-5-yl]-1-[(3S)-tetrahydro-3-furyl]indazol-5-yl}-6-oxo-1,2-diazine-3-carboxamide] | < 100
8 | N[C@@H]1CCN(c2c(NC(=O)c3ccc(=O)n(-c4c(F)cccc4F)n3)ccc3nn(C4CCOCC4)cc23)C1 [Example 337, (R)-N-(4-(3-aminopyrrolidin-1-yl)-2-(tetrahydro-2H-pyran-4-yl)-2H-indazol-5-yl)-1-(2,6-difluorophenyl)-6-oxo-1,6-dihydropyridazine-3-carboxamide] | < 100
9 | C[C@H]1CN(c2c(NC(=O)c3ccc(=O)n(-c4c(F)cccc4F)n3)ccc3nn(C4(C)CCC4)cc23)C[C@@H]1N [Example 321, N-(4-((3R,4S)-3-amino-4-methylpyrrolidin-1-yl)-2-(1-methylcyclobutyl)-2H-indazol-5-yl)-1-(2,6-difluorophenyl)-6-oxo-1,6-dihydropyridazine-3-carboxamide] | < 100
10 | CC(C)c1nc2c(N3CC[C@@H](N)C3)c(NC(=O)c3ccc(=O)n(-c4c(F)cccc4F)n3)cc(F)c2n1C [Example 143, (R)—N-(4-(3-aminopyrrolidin-1-yl)-7-fluoro-2-isopropyl-1-methyl-1H-benzo[d]imidazol-5-yl)-1-(2,6-difluorophenyl)-6-oxo-1,6-dihydropyridazine-3-carboxamide] | < 100
11 | C[C@@H]1CN(c2c(NC(=O)c3ccc(=O)n(-c4c(F)cccc4F)n3)ccc3c2cnn3C2CCCC2)C[C@@H]1N [Example 288, N-(4-((3R,4R)-3-amino-4-methylpyrrolidin-1-yl)-1-cyclopentyl-1H-indazol-5-yl)-1-(2,6-difluorophenyl)-6-oxo-1,6-dihydropyridazine-3-carboxamide34] | < 100
12 | CC(C)n1ncc2c(N3C[C@H]4CNC[C@H]4C3)c(NC(=O)c3ccc(=O)n(-c4c(F)cccc4F)n3)cc(F)c21 [Example 219, 1-(2,6-difluorophenyl)-N-(7-fluoro-4-((3aR,6aS)-hexahydropyrrolo[3,4-c]pyrrol-2(1H)-yl)-1-isopropyl-1H-indazol-5-yl)-6-oxo-1,6-dihydropyridazine-3-carboxamide] | < 100
13 | Cn1c(C(C)(C)C)nc2c(N3CCC(N)(CO)C3)c(NC(=O)c3ccc(=O)n(-c4c(F)cccc4F)n3)ccc21 (centres unmarked) [Example 105, N-(4-(3-amino-3-(hydroxymethyl)pyrrolidin-1-yl)-2-(tert-butyl)-1-methyl-1H-benzo[d]imidazol-5-yl)-1-(2,6-difluorophenyl)-6-oxo-1,6-dihydropyridazine-3-carboxamide] | < 100
14 | CC(C)n1ncc2c(N3CC[C@@H](N)C3)c(NC(=O)c3ccc(=O)n(-c4c(F)cccc4F)n3)cc(F)c21 [Example 188, (R)-N-(4-(3-aminopyrrolidin-1-yl)-7-fluoro-1-isopropyl-1H-indazol-5-yl)-1-(2,6-difluorophenyl)-6-oxo-1,6-dihydropyridazine-3-carboxamide] | < 100
15 | CC(C)c1nc2c(N3C[C@@H]4[C@H](N)[C@@H]4C3)c(NC(=O)c3ccc(=O)n(-c4c(F)cccc4F)n3)cc(F)c2n1C [Example 145, N-(4-((1R,5S,6r)-6-amino-3-azabicyclo[3.1.0]hexane-3-yl)-7-fluoro-2-isopropyl-1-methyl-1H-benzo[d]imidazol-5-yl)-1-(2,6-difluorophenyl)-6-oxo-1,6-dihydropyridazine-3-carboxamide] | < 100
16 | CC(C)n1cnc2c(N3C[C@@H](C)[C@@H](N)C3)c(NC(=O)c3ccc(=O)n(-c4c(F)cccc4F)n3)ccc21 [Example 154, N-(4-((3R,4R)-3-amino-4-methylpyrrolidin-1-yl)-1-isopropyl-1H-benzo[d]imidazol-5-yl)-1-(2,6-difluorophenyl)-6-oxo-1,6-dihydropyridazine-3-carboxamide] | < 100
17 | CC(C)n1ncc2c(N3CC[C@@H](CN)C3)c(NC(=O)c3ccc(=O)n(-c4c(F)cccc4F)n3)cc(F)c21 [Example 204, (S)-N-(4-(3-(aminomethyl)pyrrolidin-1-yl)-7-fluoro-1-isopropyl-1H-indazol-5-yl)-1-(2,6-difluorophenyl)-6-oxo-1,6-dihydropyridazine-3-carboxamide] | < 100

More lines, now with the values ahead:

Row | IC50 [nM] | SMILES
18 | < 100 | COc1cccc(F)c1-c1nccc(C(=O)Nc2cc(F)ccc2N2C[C@H]3C[C@@H]2CN3)c1F [Example 2, N-(2-((1R,4R)-2,5-diazabicyclo[2.2.1]heptan-2-yl)-5-fluorophenyl)-3-fluoro-2-(2-fluoro-6-methoxyphenyl)isonicotinamide]
19 | < 100 | COc1cccc(F)c1-c1cccc(C(=O)Nc2cc(F)ccc2N2C[C@H]3C[C@@H]2CN3)[n+]1[O-] [Example 55, 2-((2-((1R,4R)-2,5-diazabicyclo[2.2.1]heptan-2-yl)-5-fluorophenyl)carbamoyl)-6-(2-fluoro-6-methoxyphenyl)pyridine 1-oxide]
20 | < 100 | CC1(C)CN(c2c(NC(=O)c3ccc(=O)n(-c4c(F)cccc4F)n3)ccc3c2cnn3[C@H]2CCOC2)C[C@@H]1N [Example 269, N-(4-((R)-4-amino-3,3-dimethylpyrrolidin-1-yl)-1-((S)-tetrahydrofuran-3-yl)-1H-indazol-5-yl)-1-(2,6-difluorophenyl)-6-oxo-1,6-dihydropyridazine-3-carboxamide]
21 | < 100 | CC1(C)CN(c2c(NC(=O)c3ccc(=O)n(-c4c(F)cccc4F)n3)ccc3c2cnn3[C@@H]2CCOC2)C[C@H]1N [Example 268, N-(4-((S)-4-amino-3,3-dimethylpyrrolidin-1-yl)-1-((R)-tetrahydrofuran-3-yl)-1H-indazol-5-yl)-1-(2,6-difluorophenyl)-6-oxo-1,6-dihydropyridazine-3-carboxamide]
22 | < 100 | Cc1nc2c(N3CCNCC3)c(NC(=O)c3ccc(=O)n(-c4c(F)cccc4F)n3)ccc2n1C [Example 71, 1-(2,6-difluorophenyl)-N-(1,2-dimethyl-4-(piperazin-1-yl)-1H-benzo[d]imidazol-5-yl)-6-oxo-1,6-dihydropyridazine-3-carboxamide]
23 | < 100 | COc1cccc(F)c1-c1cccc(C(=O)Nc2ccc3c(cnn3C)c2N2C[C@H]3C[C@@H]2CN3)[n+]1[O-] [Example 56, 2-((4-((1R,4R)-2,5-diazabicyclo[2.2.1]heptan-2-yl)-1-methyl-1H-indazol-5-yl)carbamoyl)-6-(2-fluoro-6-methoxyphenyl)pyridine 1-oxide]
24 | 100 to 1000 | COc1cccc(F)c1-c1nc(C(=O)Nc2cc(F)ccc2N2C[C@@H]3C[C@H]2CN3)cs1 [Example 64, N-(2-((1S,4S)-2,5-diazabicyclo[2.2.1]heptan-2-yl)-5-fluorophenyl)-2-(2-fluoro-6-methoxyphenyl)thiazole-4-carboxamide]
25 | < 100 | COc1ccc(F)cc1-n1nccc(C(=O)Nc2ccc3c(nc(C)n3C)c2N2CC[C@H](N)C2)c1=O [Example 50, (S)—N-(4-(3-aminopyrrolidin-1-yl)-1,2-dimethyl-1H-benzo[d]imidazol-5-yl)-2-(5-fluoro-2-methoxyphenyl)-3-oxo-2,3-dihydropyridazine-4-carboxamide]
26 | 100 to 1000 | Cc1nc2c(N3C[C@@H](N)C[C@H]3CO)c(NC(=O)c3ccc(=O)n(-c4c(F)cccc4F)n3)ccc2n1C [Example 68, N-(4-((2S,4S)-4-amino-2-(hydroxymethyl)amidazole-1-yl)-1,2-dimethyl-1H-benzo[d]amidazole-5-yl)-1-(2,6-difluorophenyl)-6-oxo-1,6-dihydropyridazine-3-carboxamide]
